ChEMBL document CHEMBL5465560, “Selectivity Literature for EUbOPEN Chemogenomic Library” (2024)

Experiments:
[1] = biological target: Mitogen-activated protein kinase 4 (Homo sapiens) (UniProt P31152); experiment: Selectivity interaction (Ambit KINOMEscan and KiNATiv profiling in Jurkat cells) EUB0000090b MAPK4; type: cell-based; conditions: at 1 µM
[2] = biological target: Tyrosine-protein kinase HCK (Homo sapiens) (UniProt P08631); experiment: Selectivity interaction (KinomeScan (DiscoverX)) EUB0001079a HCK; conditions: at 1 µM
[3] = biological target: Casein kinase I isoform alpha (Homo sapiens, UniProt P48729); experiment: Selectivity interaction (ActivX KiNativ screen (ex vivo kinase selectivity in human PBMCs)) EUB0001619a CSNK1A1; type: cell-based; conditions: PBMC, at 1 µM
[4] = biological target: Tyrosine-protein kinase Lck (Homo sapiens, UniProt P06239); experiment: Selectivity interaction (Upstate Kinase Profiler service (Millipore)) EUB0000056c LCK; conditions: at 1 µM
[5] = biological target: T1, Tyrosine-protein kinase ITK/TSK (Homo sapiens) (UniProt Q08881); conditions: at 10 µM
T1 sequence (whole entry): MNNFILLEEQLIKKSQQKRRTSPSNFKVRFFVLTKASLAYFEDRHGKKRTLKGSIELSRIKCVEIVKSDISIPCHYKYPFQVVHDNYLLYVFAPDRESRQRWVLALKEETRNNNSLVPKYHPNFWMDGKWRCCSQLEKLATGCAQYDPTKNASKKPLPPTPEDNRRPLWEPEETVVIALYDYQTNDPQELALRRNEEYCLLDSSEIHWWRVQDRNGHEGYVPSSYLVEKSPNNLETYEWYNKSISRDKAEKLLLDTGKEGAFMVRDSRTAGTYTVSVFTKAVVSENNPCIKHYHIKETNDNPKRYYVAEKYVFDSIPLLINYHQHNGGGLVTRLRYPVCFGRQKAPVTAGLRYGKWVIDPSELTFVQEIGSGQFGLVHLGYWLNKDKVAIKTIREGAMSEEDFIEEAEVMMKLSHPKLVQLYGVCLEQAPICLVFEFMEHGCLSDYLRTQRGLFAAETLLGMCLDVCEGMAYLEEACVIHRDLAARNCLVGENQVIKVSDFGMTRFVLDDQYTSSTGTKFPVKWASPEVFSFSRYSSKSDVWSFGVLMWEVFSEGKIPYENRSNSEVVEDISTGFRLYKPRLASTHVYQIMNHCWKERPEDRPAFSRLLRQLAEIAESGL

[6] = biological target: T2, Protein kinase C zeta type (Homo sapiens) (UniProt Q05513); experiment: Selectivity interaction (ActivX KiNativ screen (kinase selectivity in THP-1 cell lysates)) EUB0000639a PRKCZ; type: subcellular; conditions: lysate
T2 sequence (whole entry): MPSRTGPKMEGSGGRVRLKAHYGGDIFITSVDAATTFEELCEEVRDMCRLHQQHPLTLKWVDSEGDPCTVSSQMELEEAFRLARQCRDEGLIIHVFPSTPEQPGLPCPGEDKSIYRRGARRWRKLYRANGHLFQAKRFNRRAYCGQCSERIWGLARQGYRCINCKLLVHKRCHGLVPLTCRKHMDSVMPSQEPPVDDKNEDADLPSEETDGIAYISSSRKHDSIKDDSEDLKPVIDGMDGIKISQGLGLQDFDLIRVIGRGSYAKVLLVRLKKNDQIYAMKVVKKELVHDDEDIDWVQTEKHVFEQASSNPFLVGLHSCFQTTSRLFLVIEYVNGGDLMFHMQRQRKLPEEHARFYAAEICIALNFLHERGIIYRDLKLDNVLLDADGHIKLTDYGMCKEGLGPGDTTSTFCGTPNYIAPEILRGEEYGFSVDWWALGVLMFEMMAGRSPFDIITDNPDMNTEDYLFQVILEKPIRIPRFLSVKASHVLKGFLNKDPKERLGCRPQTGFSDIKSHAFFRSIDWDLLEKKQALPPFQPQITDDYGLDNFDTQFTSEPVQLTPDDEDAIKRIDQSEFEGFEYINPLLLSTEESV

[7] = biological target: Serine/threonine-protein kinase WNK2 (Homo sapiens) (UniProt Q9Y3S1); experiment: Selectivity interaction (ActivX KiNativ screen (kinase selectivity in THP-1 cell lysates)) EUB0000639a WNK2; type: subcellular; conditions: lysate, at 1 µM
[8] = biological target: Tyrosine-protein kinase SYK (Homo sapiens, UniProt P43405); experiment: Selectivity interaction (KinomeScan (DiscoverX)) EUB0000666a SYK; conditions: at 10 µM
[9] = biological target: Mitogen-activated protein kinase 8 (Homo sapiens, UniProt P45983); experiment: Selectivity interaction (KinomeScan (DiscoverX)) EUB0000666a MAPK8; conditions: at 10 µM
[10] = biological target: Protein kinase C theta type (Homo sapiens, UniProt Q04759); experiment: Selectivity interaction (Kinase screening (Upstate/Millipore)) EUB0000604a PRKCQ
Sequence of Protein kinase C theta type (Q04759 whole entry, looked up): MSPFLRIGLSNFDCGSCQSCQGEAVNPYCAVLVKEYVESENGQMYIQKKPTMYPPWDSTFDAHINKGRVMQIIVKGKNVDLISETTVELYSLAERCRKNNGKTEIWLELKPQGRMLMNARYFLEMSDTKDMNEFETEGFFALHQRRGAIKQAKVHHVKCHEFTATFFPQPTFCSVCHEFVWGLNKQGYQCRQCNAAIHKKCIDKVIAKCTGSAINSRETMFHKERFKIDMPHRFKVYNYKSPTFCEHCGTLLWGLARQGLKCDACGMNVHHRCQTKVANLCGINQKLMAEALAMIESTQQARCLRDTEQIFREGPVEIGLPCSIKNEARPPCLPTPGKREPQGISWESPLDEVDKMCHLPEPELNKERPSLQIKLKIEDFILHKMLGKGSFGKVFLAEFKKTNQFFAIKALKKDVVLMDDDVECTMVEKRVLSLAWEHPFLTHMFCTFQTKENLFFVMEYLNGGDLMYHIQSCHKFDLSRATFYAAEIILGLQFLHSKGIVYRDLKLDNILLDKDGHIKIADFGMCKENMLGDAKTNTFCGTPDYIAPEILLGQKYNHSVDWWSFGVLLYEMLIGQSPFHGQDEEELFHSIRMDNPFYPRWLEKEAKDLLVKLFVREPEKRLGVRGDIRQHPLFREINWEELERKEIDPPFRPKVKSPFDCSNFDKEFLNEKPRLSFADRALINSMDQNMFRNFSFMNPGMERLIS

Sequence of Mitogen-activated protein kinase 4 (Homo sapiens) (P31152 whole entry): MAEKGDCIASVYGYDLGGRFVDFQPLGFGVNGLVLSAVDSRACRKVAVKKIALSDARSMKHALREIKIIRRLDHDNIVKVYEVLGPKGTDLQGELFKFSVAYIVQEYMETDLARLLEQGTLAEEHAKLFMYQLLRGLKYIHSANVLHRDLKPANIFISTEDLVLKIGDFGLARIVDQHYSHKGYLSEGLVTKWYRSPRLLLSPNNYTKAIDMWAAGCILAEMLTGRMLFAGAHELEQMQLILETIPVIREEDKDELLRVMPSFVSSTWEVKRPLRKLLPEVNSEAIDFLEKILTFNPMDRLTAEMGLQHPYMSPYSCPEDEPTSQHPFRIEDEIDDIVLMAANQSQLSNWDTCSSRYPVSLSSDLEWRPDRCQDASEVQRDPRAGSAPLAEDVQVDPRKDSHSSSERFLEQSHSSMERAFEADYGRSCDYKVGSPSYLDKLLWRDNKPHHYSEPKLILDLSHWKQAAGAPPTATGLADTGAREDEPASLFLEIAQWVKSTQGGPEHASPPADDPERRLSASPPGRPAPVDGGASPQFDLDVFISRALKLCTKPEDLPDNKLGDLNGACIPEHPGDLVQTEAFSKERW
Sequence of Casein kinase I isoform alpha (P48729 2-337 limits assumed): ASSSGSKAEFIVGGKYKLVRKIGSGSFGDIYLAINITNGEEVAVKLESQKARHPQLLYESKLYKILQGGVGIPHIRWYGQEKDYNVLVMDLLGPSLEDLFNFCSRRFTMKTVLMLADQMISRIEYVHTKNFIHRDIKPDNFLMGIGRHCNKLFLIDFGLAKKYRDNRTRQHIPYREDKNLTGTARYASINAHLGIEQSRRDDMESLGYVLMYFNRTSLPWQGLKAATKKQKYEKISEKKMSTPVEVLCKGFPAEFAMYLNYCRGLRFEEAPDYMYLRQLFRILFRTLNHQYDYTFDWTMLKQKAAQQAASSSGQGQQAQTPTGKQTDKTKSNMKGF
Sequence of Tyrosine-protein kinase HCK (Homo sapiens) (P08631 2-526 limits assumed): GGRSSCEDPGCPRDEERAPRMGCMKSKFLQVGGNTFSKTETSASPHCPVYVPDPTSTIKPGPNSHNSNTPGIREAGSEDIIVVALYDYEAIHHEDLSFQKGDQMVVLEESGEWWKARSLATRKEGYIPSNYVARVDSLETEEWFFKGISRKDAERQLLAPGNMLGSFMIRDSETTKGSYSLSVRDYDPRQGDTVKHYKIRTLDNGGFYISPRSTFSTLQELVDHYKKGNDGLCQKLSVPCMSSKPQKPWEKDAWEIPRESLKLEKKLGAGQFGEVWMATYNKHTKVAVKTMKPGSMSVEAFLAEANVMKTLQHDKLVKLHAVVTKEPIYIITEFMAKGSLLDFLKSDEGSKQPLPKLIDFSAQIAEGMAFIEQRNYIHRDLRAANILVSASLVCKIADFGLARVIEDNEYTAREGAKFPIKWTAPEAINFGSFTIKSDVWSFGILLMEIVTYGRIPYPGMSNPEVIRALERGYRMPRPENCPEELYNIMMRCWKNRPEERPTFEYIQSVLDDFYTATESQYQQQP
Sequence of Mitogen-activated protein kinase 8 (P45983 whole entry): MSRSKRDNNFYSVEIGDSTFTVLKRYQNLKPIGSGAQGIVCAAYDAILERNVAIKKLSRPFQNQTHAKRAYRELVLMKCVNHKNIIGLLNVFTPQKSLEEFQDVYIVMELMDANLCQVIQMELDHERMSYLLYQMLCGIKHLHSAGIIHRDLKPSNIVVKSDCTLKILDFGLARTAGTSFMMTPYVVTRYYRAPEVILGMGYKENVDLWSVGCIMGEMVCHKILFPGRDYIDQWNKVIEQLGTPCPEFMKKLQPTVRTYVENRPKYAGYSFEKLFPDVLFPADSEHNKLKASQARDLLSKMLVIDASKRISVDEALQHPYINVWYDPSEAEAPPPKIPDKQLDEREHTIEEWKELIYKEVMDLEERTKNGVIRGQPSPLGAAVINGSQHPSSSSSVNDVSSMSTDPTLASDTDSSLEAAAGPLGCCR
Sequence of Tyrosine-protein kinase Lck (P06239 2-509 limits assumed): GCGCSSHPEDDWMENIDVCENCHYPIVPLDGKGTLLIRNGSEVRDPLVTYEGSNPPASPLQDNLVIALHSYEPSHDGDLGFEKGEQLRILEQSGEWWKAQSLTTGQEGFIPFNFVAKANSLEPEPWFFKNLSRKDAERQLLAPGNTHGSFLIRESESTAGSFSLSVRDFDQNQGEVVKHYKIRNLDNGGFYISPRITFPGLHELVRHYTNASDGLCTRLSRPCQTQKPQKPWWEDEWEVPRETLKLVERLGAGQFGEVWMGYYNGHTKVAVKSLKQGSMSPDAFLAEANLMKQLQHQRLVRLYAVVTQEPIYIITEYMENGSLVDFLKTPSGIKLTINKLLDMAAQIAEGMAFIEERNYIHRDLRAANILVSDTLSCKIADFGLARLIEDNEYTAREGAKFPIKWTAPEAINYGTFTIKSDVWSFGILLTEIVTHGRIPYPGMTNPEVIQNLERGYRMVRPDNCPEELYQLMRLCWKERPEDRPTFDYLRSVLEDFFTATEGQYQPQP

Q: With CN(C)C/C=C/C(=O)Nc1ccc(C(=O)N2CCCC(Nc3ncc(Cl)c(-c4c[nH]c5ccccc45)n3)C2)cc1 (centres undefined) as the compound, how does the % of control [1] read?
A: Its % of control is 64%.

Q: Which % of control [2] does the source give for Nc1cnc(N2CCc3cc(S(=O)(=O)Nc4c(F)cc(Cl)cc4F)cc(N4CCCC4=O)c32)nc1 [TP-020n] here?
A: Its % of control is 100%.

Q: N#Cc1cccc(-c2c[nH]c3ncnc(N4CCOCC4)c23)c1 was tested. Which % of inhibition [3] did it give?
A: Its % of inhibition is -7%.

Q: How did the % of inhibition [4] turn out when Cc1ccc(-c2ccc3c(ccc4sc5c(c43)NC[C@@H](C)NC5=O)n2)cn1 was run?
A: The % of inhibition was -3%.

Q: Cc1cc([C@@H](C)Nc2ccccc2C(=O)O)c2nc(N3CCOCC3)cc(=O)n2c1 [AZD-6482] was tested. Which % of control [5] did it give?
A: The % of control was 98%.

Q: How did the % of inhibition ([6]; at 0.01 µM) turn out when CC[C@@H]1[C@H](F)C(=O)N[C@@H]1COc1nccc2cc(C(N)=O)c(OC)cc12 [ZIMLOVISERTIB] was run?
A: The % of inhibition was 8.5%.

Q: What about the % of inhibition ([6]; at 0.04 µM) of the same compound?
A: Its % of inhibition is -2.3%.

Q: And the % of inhibition ([6]; at 0.2 µM)?
A: The % of inhibition was -7.6%.

Q: And the % of inhibition ([6]; at 1 µM)?
A: Its % of inhibition is 6.9%.

Q: What about the % of inhibition ([6]; at 5 µM) of the same compound?
A: The % of inhibition was -26.2%.

Q: What about the % of inhibition [7] of the same compound?
A: Its % of inhibition is -7.7%.

Q: O=C(NOC[C@H](O)CO)c1ccc(F)c(F)c1Nc1ccc(I)cc1F was tested. Which % of control [8] did it give?
A: Its % of control is 100%.

Q: And the % of control [9]?
A: The % of control was 92%.

Q: For Cc1cnc(Nc2ccc(F)cc2Cl)nc1-c1c[nH]c(C(=O)N[C@H](CO)c2cccc(Cl)c2)c1, which % of inhibition [10] is on record?
A: Its % of inhibition is 17%.
